# Earlier results as cited in patent US10092545B2, “Nutritional supplements for improving female fertility” (Fairhaven Health, LLC, priority 2016, dated 2018).
# Columns and labels:
# obese women with PCOS = details: administering for as little as two months
# [1] = system: oocyte-specific Pdss2-deficient animals; details: maternal dietary administration
# females = females taking myo-inositol
smiles,measurement,setting,value
COc1ccc2[nH]cc(CCNC(C)=O)c2c1 [melatonin],fertilization and pregnancy rates,infertile women,elevates
same,intra-follicular melatonin concentrations,infertile women,increases
same,intra-follicular oxidative damage,infertile women,reduces
[Cr] [chromium],improvement of insulin sensitivity,obese women with PCOS,more than 30%
"COC1=C(OC)C(=O)C(C/C=C(\C)CC/C=C(\C)CC/C=C(\C)CC/C=C(\C)CC/C=C(\C)CC/C=C(\C)CC/C=C(\C)CC/C=C(\C)CC/C=C(\C)CCC=C(C)C)=C(C)C1=O [CoQ10, Coenzyme Q10]",premature ovarian failure,[1],could be prevented
O[C@H]1[C@H](O)[C@@H](O)[C@H](O)[C@@H](O)[C@H]1O [myo-inositol],insulin sensitivity,females,increased
same,serum testosterone level,females,decreased
